# Tests used:
# Type in all cases: in vivo
# [1] = system: Italian ryegrass (Lolium multiflorum); experiment: Test B pre-/postemergence plant response
# How it was run: (§1)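 Test compounds, formulated in a non-phytotoxic solvent mixture with surfactant, are applied to the soil surface (loam and sand blend) right after seeding, or sprayed over plants at the 1- to 4-leaf stage grown in peat moss/vermiculite medium. After 13 to 15 days under glasshouse conditions, each species is scored visually from 0 (no effect) to 100 (complete control) against controls.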
# [2] = system: bermudagrass (Cynodon dactylon); experiment: Test B pre-/postemergence plant response
# How it was run: as §1
# [3] = system: galium (catchweed bedstraw, Galium aparine); experiment: Test B pre-/postemergence plant response; details: Preemergence
# How it was run: as §1
# [4] = system: lambsquarters (Chenopodium album); experiment: Test B pre-/postemergence plant response
# How it was run: as §1
# [5] = system: nightshade (eastern black nightshade, Solanum ptycanthum); experiment: Test B pre-/postemergence plant response; details: Preemergence
# How it was run: as §1
# [6] = system: pigweed (Amaranthus retroflexus); experiment: Test B pre-/postemergence plant response
# How it was run: as §1
# [7] = system: ragweed (common ragweed, Ambrosia elatior); experiment: Test B pre-/postemergence plant response
# How it was run: as §1
# [8] = system: sunflower (common oilseed sunflower, Helianthus annuus); experiment: Test B pre-/postemergence plant response; details: Preemergence
# How it was run: as §1
# [9] = system: wheat (Triticum aestivum); experiment: Test B pre-/postemergence plant response
# How it was run: as §1
# [10] = system: canarygrass (Phalaris minor); experiment: Test B postemergence plant response; details: Postemergence
# How it was run: (§2)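 Plants at the 1- to 4-leaf stage (2 to 18 cm tall), grown in pots of peat moss/vermiculite medium with wetting agent and starter nutrients, received postemergence applications of test chemicals. After 13 to 15 days in a greenhouse, injury was rated visually against untreated controls on a 0 (no effect) to 100 (complete control) scale.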
# [11] = system: chickweed (Stellaria media); experiment: Test B postemergence plant response; details: Postemergence
# How it was run: as §2
# [12] = system: windgrass (Apera spica-venti); experiment: Test B postemergence plant response; details: Postemergence, scale 0 (no effect) to 100 (complete control)
# How it was run: as §2
# [13] = system: winter barley (Hordeum vulgare); experiment: Test B postemergence plant response; details: Postemergence
# How it was run: as §2
# [14] = system: goosegrass (Eleusine indica); experiment: Test B pre-/postemergence plant response; details: Preemergence, 62 g ai/ha; scale 0 to 100, 0 no effect, 100 complete control
# [15] = 250 g ai/ha, Preemergence, 0 to 100 scale
# [16] = Postemergence, 62 g ai/ha, scale 0 (no effect) to 100 (complete control), 13 to 15 days
# [17] = Postemergence, 125 g ai/ha, visual rating after 13 to 15 days, scale 0 (no effect) to 100 (complete control)
# [18] = Preemergence, 31 g ai/ha, scale 0 to 100 (0 no effect, 100 complete control)
# [19] = Preemergence, 125 g ai/ha, 0 to 100 scale
# [20] = Postemergence, 250 g ai/ha, scale 0 to 100
# [21] = Preemergence, 62 g ai/ha, scale 0 to 100, 0 no effect, 100 complete control
# [22] = 31 g ai/ha, scale 0 to 100 (0 no effect, 100 complete control)
# [23] = 62 g ai/ha, scale 0 to 100, 0 no effect, 100 complete control
# [24] = 62 g ai/ha, scale 0 (no effect) to 100 (complete control), 13 to 15 days
# [25] = 125 g ai/ha, visual rating after 13 to 15 days, scale 0 (no effect) to 100 (complete control)
compound,measurement,setting,value
Cc1ccc(-n2c(-c3cccc(Cl)c3)ncc(C(=O)C3=C(O)CCCC3=O)c2=O)cc1 [Compound 39],"Plant response rating, Ryegrass, Italian",[1]; [15],0
same,"Plant response rating, Ryegrass, Italian",[1]; [16],5
same,"Plant response rating, Ryegrass, Italian",[1]; [17],5
same,"Plant response rating, Ryegrass, Italian",[1]; [18],0
same,"Ryegrass, Italian plant response rating",[1]; [19],0
same,"Plant response rating, Bermudagrass",[2]; [15],100
same,"Plant response rating, Bermudagrass","[2]; Postemergence, 31 g ai/ha, scale 0 to 100 (0 no effect, 100 complete control)",50
same,"Plant response rating, Bermudagrass",[2]; [16],60
same,"Plant response rating, Bermudagrass",[2]; [17],85
same,Bermudagrass plant response rating,[2]; [20],100
same,"Plant response rating, Bermudagrass",[2]; [18],85
same,"Plant response rating, Bermudagrass",[2]; [21],100
same,Bermudagrass plant response rating,[2]; [19],100
same,"Plant response rating, Galium","[3]; 250 g ai/ha, 0 to 100 scale",85
same,"Plant response rating, Galium",[3]; [22],70
same,"Plant response rating, Galium",[3]; [23],80
same,Galium plant response rating,"[3]; 125 g ai/ha, 0 to 100 scale",85
same,"Plant response rating, Lambsquarters",[4]; [15],100
same,"Plant response rating, Lambsquarters",[4]; [16],95
same,"Plant response rating, Lambsquarters",[4]; [17],100
same,Lambsquarters plant response rating,[4]; [20],100
same,"Plant response rating, Lambsquarters",[4]; [18],100
same,"Plant response rating, Lambsquarters",[4]; [21],100
same,Lambsquarters plant response rating,[4]; [19],100
same,"Plant response rating, Nightshade","[5]; 250 g ai/ha, 0 to 100 scale",100
same,"Plant response rating, Nightshade",[5]; [22],50
same,"Plant response rating, Nightshade",[5]; [23],100
same,Nightshade plant response rating,"[5]; 125 g ai/ha, 0 to 100 scale",100
same,"Plant response rating, Pigweed",[6]; [15],100
same,"Plant response rating, Pigweed",[6]; [16],100
same,"Plant response rating, Pigweed",[6]; [17],100
same,"Plant response rating, Pigweed",[6]; [18],90
same,Pigweed plant response rating,[6]; [19],100
same,"Plant response rating, Ragweed",[7]; [15],95
same,"Plant response rating, Ragweed",[7]; [16],85
same,"Plant response rating, Ragweed",[7]; [17],95
same,"Plant response rating, Ragweed",[7]; [18],0
same,Ragweed plant response rating,[7]; [19],75
same,"Plant response rating, Sunflower","[8]; 250 g ai/ha, 0 to 100 scale",65
same,"Plant response rating, Sunflower",[8]; [22],0
same,Sunflower plant response rating,"[8]; 125 g ai/ha, 0 to 100 scale",25
same,"Plant response rating, Wheat",[9]; [15],0
same,"Plant response rating, Wheat",[9]; [16],5
same,"Plant response rating, Wheat",[9]; [17],5
same,"Plant response rating, Wheat",[9]; [18],0
same,Wheat plant response rating,[9]; [19],0
same,"Plant response rating, Canarygrass",[10]; [22],0
same,"Plant response rating, Canarygrass",[10]; [24],0
same,"Plant response rating, Canarygrass",[10]; [25],0
same,Canarygrass plant response rating,"[10]; 250 g ai/ha, scale 0 to 100",20
same,"Plant response rating, Chickweed",[11]; [22],98
same,"Plant response rating, Chickweed",[11]; [24],100
same,"Plant response rating, Chickweed",[11]; [25],100
same,Chickweed plant response rating,"[11]; 250 g ai/ha, scale 0 to 100",100
same,"Plant response rating, Windgrass","[12]; 62 g ai/ha, 13 to 15 days",0
same,"Plant response rating, Windgrass","[12]; 125 g ai/ha, visual rating after 13 to 15 days",5
same,"Plant response rating, Barley",[13]; [22],0
same,"Plant response rating, Barley",[13]; [24],0
same,"Plant response rating, Barley",[13]; [25],0
same,Barley plant response rating,"[13]; 250 g ai/ha, scale 0 to 100",10
same,"Plant response rating, Goosegrass",[14],100

# — patent US8952024B2, “Herbicidal pyrimidone derivatives” (E I du Pont de Nemours and Company, priority 2009, dated 2015)
